Measurements taken from US5856334A, “Imidazoquinoline derivatives” (Mochida Pharmaceutical Co., Ltd., priority 1994, dated 1999).
Where “and” joins values, the source holds several entries; their conditions need not be identical. Identical values can stand only once.

Key:
[1] = system: intraperitoneal eosinophils; assay: Activity on Mouse Intraperitoneal Hypereosinophilic Model (Ascaris suum extract sensitization); assay type: in vivo, BALB/c male mice; conditions: peroral, once a day, 10 administrations
Protocol: BALB/c male mice (body weight=ca. 25 g), divided in groups each consisting of five animals, were sensitized by intraperitoneal injection of physiological saline (0.11 mL) containing 0.1 mg of Ascaris suum extract. Seven days later, the same treatment was conducted; three days later, the animals were bled to death and injected intraperitoneally with 3 mL of physiological saline containing 1% dipotassium ethylenediaminetetraacetate (EDTA) and massaged on the abdominal part for about 30 sec. The abdominal part was incised to collect the intraperitoneal fluid, which was centrifuged at 130×g for 10 min. Fetal bovine serum (500 μl) containing 1% EDTA was added to the pellet to prepare a cell suspension. Part of the cell suspension was smeared on a glass slide with a centrifugal smearing device and subjected to Difquick staining. Thereafter, the total white blood cell (WBC) count and the eosinophil count were taken to determine the percentage of eosinophils in the total WBC. The total number of WBCs in the cell suspension was measured with an automatic hemocytometer. Multiplying the percentage of eosinophils in the total WBC by the total number of WBCs provided the number of eosinophils in the cell suspension. […] The mice neither sensitized nor administered the test compounds (untreated group), as well as the mice that were sensitized but not administered the test compounds (control group) were similarly administered 5% aqueous gum arabic perorally. Inhibition of the Increase in Eosinophils (%)={1-(test compound administered group-untreated group)/(control group-untreated group)}×100

[2] = system: eosinophils in BALF; assay: Activity on Model for the Increase of Eosinophils in the Rat Bronchial Alveolar Lavage Fluid (Sephadex G200 sensitization); assay type: in vivo, Sd male rats; conditions: peroral, once a day, 10 administrations
Protocol: Sd male rats (8 wk old), divided in groups each consisting of five animals, were sensitized by an intravenous injection into tail vein of Sephadex G200 suspension (1 mL), that had been prepared to give a concentration of 0.75 mg/ml physiological saline. Seven days later, the same treatment was conducted; three days later, each rat was fitted with an tracheal cannula under anesthetization with pentobarbital and 7 mL of physiological saline containing 1% EDTA was injected via the cannula and recovered; this procedure was repeated three times to collect the BALF, which were centrifuged at 130×g for 10 min. Physiological saline (200 μl) containing 1% EDTA was added to the pellet to prepare a cell suspension. Part of the cell suspension was resuspended in fetal bovine serum containing 1% EDTA, smeared on a glass slide with a centrifugal smearing device and subjected to Difquick staining. Thereafter, the total WBC count and the eosinophil count were taken to determine the percentage of eosinophils in the total WBC. The total number of WBCs in the cell suspension was measured with a hemocytometer after staining with a Turck solution. Multiplying the percentage of eosinophils in the total WBC by the total number of WBCs provided the number of eosinophils in the cell suspension.
Each of the test compounds was suspended in 5% aqueous gum arabic and administered perorally to mice immediately after the initial sensitization on a once-a-day basis for a total of 10 administrations (test compound-treated group). The mice neither sensitized nor administered the test compounds (untreated group), as well as the mice that were sensitized but not administered the test compounds (control group) were similarly administered 5% aqueous gum arabic perorally.
Inhibition of the Increase of Eosinophils (%)={1-(test compound
administered group-untreated group)/(control group-untreated

[3] = Experiment on Acute Toxicity (oral, survival until 7th day); parameters: species or system ICR male mice; conditions: mouse, in vivo, 1000 mg/kg, peroral, until the 7th day of the administration, read-out: No. of Survivals (converted)
From the text: ICR male mice (body weight=ca. 35 g) weighing about 30 g were divided in groups each consisting of one or three animals and administered perorally each of the test compounds as suspended in 5% aqueous gum arabic. The mice were then examined for their survival until the 7th day of the administration.

Structure (SMILES)	Inhibition of the Increase of Eosinophils (%) ([1]; 30 mg/kg/day)	Inhibition of the Increase of Eosinophils (%) ([1]; 100 mg/kg/day)	Inhibition of the Increase of Eosinophils in BALF (%) ([2]; 30 mg/kg/day)	survival at 168 h [3] [%]	also measured
OC1CCn2c(CCc3ccccc3)nc3cccc1c32 (single isomer, unassigned; (+)) [Example 11, (+)-5,6-dihydro-2-(2-phenylethyl)-4H-imidazo[4,5,1-ij]quinolin-6-ol]	43				
O=C(O)c1ccccc1COC1CCn2c(CCc3ccccc3)nc3cccc1c32 (single isomer, unassigned; (+)) [Example 24, (+)-6-(2-carboxyphenyl)methoxy-5,6-dihydro-2-(2-phenylethyl)-4H-imidazo[4,5,1-ij]quinoline]	45				
O=C1CCn2c(CCc3ccccc3)nc3cccc1c32 [Example 1, 4,5-dihydro-2-(2-phenylethyl)-6H-imidazo[4,5,1-ij]quinolin-6-one]	48	68	68	100	
OC1CCn2c(CCc3ccccc3)nc3cccc1c32 (centres unmarked) [Example 4, 5,6-dihydro-2-(2-phenylethyl)-4H-imidazo[4,5,1-ij]quinolin-6-ol]	67	57	90	100	
c1ccc(CCc2nc3cccc4c3n2CCC4)cc1 [Example 13, 5,6-dihydro-2-(2-phenylethyl)-4H-imidazo[4,5,1-ij]quinoline]	49	64		100	
Cl.NC1CCn2c(CCc3ccccc3)nc3cccc1c32 (centres unmarked) [Example 18, 5,6-dihydro-2-(2-phenylethyl)-4H-imidazo[4,5,1-ij]quinolin-6-amine hydrochloride]	53				
CON=C1CCn2c(CCc3ccccc3)nc3cccc1c32 [Example 35, 5,6-dihydro-6-methoxyimino-2-(2-phenylethyl)-4H-imidazo[4,5,1-ij]quinoline]			73	100	
O=C(O)c1ccccc1C(=O)OC1CCn2c(CCc3ccccc3)nc3cccc1c32 (centres unmarked) [Example 41, 5,6-dihydro-6-(o-carboxybenzoyloxy)-2-(2-phenylethyl)-4H-imidazo[4,5,1-ij]quinoline]				100	
O=C(O)c1cccc(COC2CCn3c(CCc4ccccc4)nc4cccc2c43)c1C(=O)O (centres unmarked) [Example 64, 6-(2,3-dicarboxyphenyl)methoxy-5,6-dihydro-2-(2-phenylethyl)-4H-imidazo[4,5,1-ij]quinoline]	57				
CC(=O)OCC(=O)[C@@]1(O)CC[C@H]2[C@@H]3CCC4=CC(=O)C=C[C@]4(C)[C@H]3[C@@H](O)C[C@@]21C [Prednisolone Acetate, 11β, 17α, 21-trihydroxypregna-1,4-diene-3,20-dione 21-acetate, reference compound]					Inhibition of the Increase of Eosinophils (%) ([1]; 10 mg/kg/day): 65%; Inhibition of the Increase of Eosinophils in BALF (%) ([2]; 10 mg/kg/day): 76% and 69%
